This passage reports Kd results from BindingDB's records for doi:10.1021/acschembio.7b00062 (Philipps-Universität Marburg, 2017).

Structures are written as SMILES.

The target of the assay is Aldo-keto reductase family 1 member B1 (Homo sapiens, UniProt P15121). In words: SPR Assay. The conditions noted are these: pH 8.5. As to the method:
The anti-His antibody (His Capture Kit, GE Healthcare) was immobilized on sensor chip CM5 (GE Healthcare), in a Biacore T200 or Biacore S200 instrument, to ∼10000 resonance units (RU) using a standard amine coupling procedure (Amine Coupling Kit, GE Healthcare). His-tagged aldose reductase (ALR2), at a concentration of 100 μg/mL, was captured on the anti-His antibody using dual injection consisting of a 3 min injection of protein followed by a 100 s activation with a mixture (1:1) of 0.2 M N-ethyl-N-(dimethylamino)propylcarbodiimide (EDC) and 50 mM N-hydroxysuccinimide (NHS), and final blocking with an injection of 1.0 Methanolamine (pH 8.5) for 100 s. […] For the interaction analysis, the compound concentrations ranged from 3 to 10000 nM with a 5-fold dilution step, using a single-cycle kinetic approach with three or five concentrations or injections per cycle.

Regarding `O=C(O)COc1cc(F)ccc1C(=O)Nc1cccc([N+](=O)[O-])c1` [ALR2 inhibitor, 8], the affinity, expressed as Kd, was 23 nM.

For `NC(=O)[C@@H]1C[C@]2(NC(=O)NC2=O)c2cc(F)ccc2O1` [(2S,4S)-6-fluoro-2,5-dioxo-2,3-dihydrospiro[chromene-4,4-imidazolidine]-2-carboxamide], the Kd (commonly the concentration at which binding is half-saturated) worked out at 16 nM.

`O=C(O)COc1ccc(-c2ccccc2)cc1C(=O)NCc1cccc([N+](=O)[O-])c1` [ALR2 inhibitor, 11] registered a Kd of 15 nM.

In the case of `O=C(O)COc1cc(Cl)ccc1C(=O)NCc1cccc([N+](=O)[O-])c1` [2-(5-chloro-2-{[(3-nitrophenyl)methyl]carbamoyl}phenoxy)acetic acid], the equilibrium dissociation constant (Kd) amounted to 14 nM.
